Test results: EP3611183B1, “EPITOPE PEPTIDE SPECIFICALLY RECOGNIZING AUTOANTIBODY AGAINST AQUAPORIN 5, AND USE THEREOF” (Seoul National University R & DB Foundation, priority 2017, dated 2023)

Tested on: anti-AQP5 autoantibodies
Test: Indirect immunofluorescence (IIF) assay: AQP5 staining by human serum/IgG pre-incubated with peptide
Assay type: binding
Settings: for inhibition of anti-AQP5 autoantibodies from the control group: by comparison of the mean signal intensities (Fig. 2B); for frequency of recognition by SS vs control samples: seven peptides originating from the AQP5 sequence
Excerpt: This study was done in compliance with the Helsinki Declaration after approvals from the Institutional Review Board of Seoul National University Hospital (IRB number: 0912-011-302) and the Institutional Review Board of Seoul St. Mary's Hospital (IRB number: KC13ONMI0646). From our previous study (12), 13 control and 24 SS serum samples positive for anti-AQP5 IgG were chosen based on the levels of anti-AQP5 IgG and availability. The first 12 control and 12 SS samples had similar low levels of anti-AQP5 IgG, while the rest of the samples had intermediate to high levels. IgG antibodies were purified using a protein A column (ThermoFisher Scientific, Waltham, MA, USA) from the sera of 3 SS patients who were not included in the previous study. A commercial human IgG product purified from pooled normal sera (Sigma-Aldrich Korea, Seoul, Korea) was used as control. All SS patients fulfilled the 2002 American-European Consensus group classification criteria and/or the 2012 American College of Rheumatology criteria. Madin-Darby canine kidney (MDCK) cells expressing full-length human AQP5 (MDCK-AQP5) were maintained in DMEM medium with 10% FBS and 1% penicillin/streptomycin in the presence of G418 (12). A mixture of non-transfected MDCK and MDCK-AQP5 cells (6 × 10^4) was plated onto collagen-coated coverslips of 12 mm diameter. After stimulation with 0.5 mM cAMP for 24 hours, the cells were fixed with 4% paraformaldehyde in PBS (pH 7.4) and subjected to antigen retrieval by incubation in sodium citrate buffer (10 mM sodium citrate, 0.05% Tween-20, pH 6) at 105 °C for 20 min. After blocking with 5% BSA in PBS, the cells were incubated with goat polyclonal antibodies raised against a peptide near the C-terminus of human AQP5 (Santa Cruz, Paso Robles, CA, USA) along with control/SS sera (1:200 dilution) or purified IgG (10 µg) that were pre-incubated overnight with 10 µg synthetic peptides in RIA buffer (10 mM Tris-HCl, 350 mM NaCl, 1% BSA, 1% Triton X-100, 0.5 % Sodium deoxycholate, 0.1% SDS, 10% Horse serum, pH 7.6). Subsequently, the cells were stained with Alexa Fluor 488-conjugated donkey anti-goat IgG (Invitrogen, Carlsbad, CA, USA) and CF™ 594-conjugated rabbit anti-human IgG (Sigma-Aldrich). At least four images of AQP5-expressing cells were randomly selected, based on the goat anti-AQP5 antibody stain, and imaged sequentially for the staining with human IgG using a confocal microscope (Carl Zeiss, Jena, Germany). After coding the images, two individuals blindly determined the relative intensities of the anti-AQP5 human IgG signals by decreasing the brightness of the red signal until all the signals of AQP5 stain disappeared. […] The mean of the Δ brightness was used to express the anti-AQP5 IgG level in each sample. The differences in proportion between two groups were determined by Fisher's exact test. Differences in means between the experimental and control groups were determined by Student's t-test, while the differences among peptides were determined by Oneway ANOVA. All statistical analyses were performed using SPSS (SPSS Inc., Chicago, USA). To analyze the epitopes recognized by anti-AQP5 autoantibodies, MDCK-AQP5 cells were double stained with goat anti-AQP5 antibodies and serum from either control subjects or SS patients that were pre-incubated with each peptide (Fig. 2A). The intensity of AQP5 staining by human IgG in the presence of each peptide was expressed as the percentage of control conditions in the absence of peptides (Table 2). Because the normalized intensities of AQP5 staining in the presence of IRP varied from 69 to 173 depending on the sample, signal intensities smaller than 62.2, which is the mean - 2SD of values in the presence of IRP, were regarded as being inhibited by the corresponding peptide.

CMNPARSFGC (Epitope of AQP5 Extracellular loop E with Cystein added at N- and C- term) [E2, Extracellular loop E aa 184-191 with added terminal cysteines]
inhibition of anti-AQP5 autoantibodies from the control group: significantly inhibited
frequency of recognition by SS vs control samples: more frequently recognized by SS than by control samples

GCSMNPARSFGC (Epitope of AQP5 Extracellular loop E with Cystein added at C- term) [peptide E1, Extracellular loop E aa 181-191 with C-terminal cysteine added]
control samples inhibited by / recognizing the peptide (14 control samples (13 sera, 1 control-IgG), inhibited = signal intensity smaller than 62.2): 2 of 14
SS samples inhibited by / recognizing the peptide (27 SS samples (24 sera, 3 purified IgG), inhibited = signal intensity smaller than 62.2): 20 of 27
inhibition of anti-AQP5 autoantibodies from the control group: significantly inhibited
frequency of recognition by SS vs control samples: most frequently recognized
